Assay results reported in patent US7998924B2, “Compounds that bind to p185 and methods of using the same” (The Trustees of The University of Pennsylvania, priority 2001, dated 2011).
“Also recorded” adds a separate entry of the source. Where two headings read alike, the source gives them in different places. Positions of bridges follow the written chain, without caps; N, C: chain ends. Residues, ends and D or L forms follow the SMILES beside them. No end group written: not given here.

Experiments:
[1] = tested on: MCF-7 parental strain (MCF/Par) p185-expressing cells; assay: Combination treatment with tamoxifen, growth inhibition, MCF-7 parental; format: cell-based; conditions: peptide 1 μg/ml plus tamoxifen
[2] = tested on: MCF-7/H2 p185-overexpressing cells; assay: Combination treatment with tamoxifen, growth inhibition, MCF-7/H2; format: cell-based; conditions: peptide 1 μg/ml plus tamoxifen
HER2 receptor = target: T1, HER2 receptor (Homo sapiens, UniProt P04626); assay: Biacore (surface plasmon resonance) binding of peptides to immobilized HER2; conditions: for kon: read-out: binding to HER2 kon
T1 construct: Recombinant purified HER2 receptor composed of the ectodomain of HER2 fused to the Fc of human IgG; purchased Xcyte Therapeutics, Seattle, Wash; (provided by Dr. Che Law; a gift, not a catalogue product)
From the text: Binding of AHNP has been studies by means of surface plasmon resonance (Biacore) technology. In Biacore experiments, one of the interacting molecules (termed the ligand) is immobilized on the sensor surface, and the other interactant (termed the analyte) is continuously flown over that surface in a micro-flow cell. The interaction between the ligand and the analyte are monitored using a light source that is reflected at the immobilized chip. Binding of the analyte to the immobilized ligand changes the resonance angle of the reflected light due to changes in the refractive index of the surface. The response is plotted in real time in the form of sensorgram curves. The advantage with this approach is its sensitivity, ease of use, and ability to perform experiments with few microgram quantities of proteins and peptides. In addition, the kinetic binding studies reveal association and disassociation rates of the analyte which may be more relevant for understanding the pharmacokinetics of drug-receptor interactions.
Binding experiments were performed with the surface plasmon resonance based biosensor instrument Biacore 3000 (Biacore AB, Uppsala, Sweden) at 25° C. Recombinant purified HER2 receptor composed of the ectodomain of HER2 fused to the Fc of human IgG was provided by Dr. Che Law, Xcyte Therapeutics, Seattle, Wash. Immobilization of HER2 in the sensor surface was performed following the standard amine coupling procedure according to manufacturer's instructions. Briefly, 35 pit of a solution containing 0.2M N-ethyl-N-(dimethylaminopropyl) carbodiimide (EDC) and 0.05 M N-hydroxysuccinimide (NHS) were injected at a flow rate of 5 μL/min to activate carboxyl groups on the sensor chip surface. HER2 (40 ng/mL in 10 mM NaOAc buffer, pH 5.0) was flowed over the chip surface at a flow rate of 20 μL/min until the desired level bound protein was reached. Unreacted protein was washed out and unreacted activated groups were blocked by the injection of 35 μL of 1 M ethanolamine at 5 μL/min. […] A reference surface was generated simultaneously under the same conditions but without HER2 injection and used as a blank to correct for instrument and buffer artifacts. Peptides were injected at variable concentrations at 20 μL/min flow rate and binding to the HER2 receptor immobilized on the chip was monitored in real time. Each sensorgram consists of an association phase (first 240 s), reflecting binding of the injected peptide to the receptor, followed by a dissociation phase (300 s), during which the running buffer is passed over the chip and the bound peptide is being washed off the receptor surface.

[3] = Peptide solubility in PBS buffer at 1 mg/mL; format: physicochemical; conditions: pH 7.4, 1 mg/mL
Protocol: These peptides could be readily dissolved in the PBS buffer, pH 7.4, at 1 mg/mL concentration without adjustment of pH.

T6-17 cells = conditions: for % inhibition of T6-17 cell proliferation in MTT assays: 1 μg/mL of peptides for 48 h
Protocol: (See reference 46 below.) HER2-expressing transformed tumor cells (T6-17) were used for this purpose. […] Each value represents an average of at least four samples.
The MTT assay has been used for measuring cell growth as previously described in ref 446. Briefly, T6-17 cells were seeded in 96-well plates overnight in DMEM containing 10% FBS (1000 per well). T6-17 is derived from NIH3T3 by overexpressing the human HER2 receptor. Cells were cultured in 100 μL of fresh medium containing 1 μg/mL of peptides for 48 h. […] A total of 25 μL of MTT solution (5 mg/mL in PBS) was added to each well, and after 2 h of incubation at 37° C., 100 μA of the extraction buffer (20% w/v of SDS, 50% N,N-dimethyl formamide, pH 4.7) were added. After an overnight incubation at 37° C., the optical density at 600 rim was measured using an ELISA reader.

[4] = Biacore, immobilized HER2, 25° C., read-out: binding to HER2 KD
[5] = Biacore, immobilized HER2, 25° C., read-out: binding to HER2 koff
[6] = Biacore, immobilized HER2, 25° C.

T1 sequence (P04626 23-652 limits assumed): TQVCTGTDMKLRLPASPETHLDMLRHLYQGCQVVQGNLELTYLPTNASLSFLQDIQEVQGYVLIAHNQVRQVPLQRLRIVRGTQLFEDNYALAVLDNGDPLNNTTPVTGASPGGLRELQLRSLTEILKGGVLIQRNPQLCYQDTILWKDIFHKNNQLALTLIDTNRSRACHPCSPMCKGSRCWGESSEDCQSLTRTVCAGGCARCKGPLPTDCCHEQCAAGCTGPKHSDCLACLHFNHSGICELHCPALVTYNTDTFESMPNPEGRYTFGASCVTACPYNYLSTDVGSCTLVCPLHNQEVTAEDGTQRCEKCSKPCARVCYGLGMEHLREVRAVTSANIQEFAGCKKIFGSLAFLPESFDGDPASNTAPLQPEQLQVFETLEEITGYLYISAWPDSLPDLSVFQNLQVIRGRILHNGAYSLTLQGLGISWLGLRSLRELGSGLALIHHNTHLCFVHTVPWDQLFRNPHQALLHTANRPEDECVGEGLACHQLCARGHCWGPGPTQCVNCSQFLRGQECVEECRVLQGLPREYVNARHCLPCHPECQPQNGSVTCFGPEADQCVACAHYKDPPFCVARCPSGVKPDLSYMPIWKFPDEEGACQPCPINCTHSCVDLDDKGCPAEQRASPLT

FCGDGFYACYMDV-NH2 (disulfide 2-9 (inferred)) [SEQ ID NO: 143]
growth inhibition in combination with tamoxifen (in words) [1]: enhanced in vitro inhibition of proliferation
growth inhibition in combination with tamoxifen (in words) [2]: enhanced in vitro inhibition of proliferation

CSCC[C@H](NC(=O)[C@H](Cc1ccc(O)cc1)NC(=O)[C@@H]1CSSC[C@H](NC(=O)[C@@H](N)Cc2ccccc2)C(=O)N[C@@H](CC(=O)O)C(=O)NCC(=O)N[C@@H](Cc2ccccc2)C(=O)N[C@@H](Cc2ccc(O)cc2)C(=O)N[C@@H](C)C(=O)N1)C(=O)N[C@@H](CC(=O)O)C(=O)N[C@H](C(=O)N[C@@H](CCCCN)C(N)=O)C(C)C [Peptide 5] (H-FCDGFYACYMDVK-NH2; disulfide 2-8)
Kd (HER2 receptor; [4]): 830 nM
lower receptor affinity than 7 (HER2 receptor; relative to peptide 7): 14%
solubility [3]: < 1000 µg/mL
solubility (in words) [3]: no improvement in solubility

CSCC[C@H](NC(=O)[C@H](Cc1ccc(O)cc1)NC(=O)[C@H](CS)NC(=O)[C@H](C)NC(=O)[C@H](Cc1ccc(O)cc1)NC(=O)[C@H](Cc1ccccc1)NC(=O)CNC(=O)[C@H](CC(=O)O)NC(=O)[C@H](CS)NC(=O)[C@@H](N)Cc1ccccc1)C(=O)N[C@@H](CC(=O)O)C(=O)N[C@H](C(=O)O)C(C)C [Peptide 9]
Kd (HER2 receptor): 3560 nM
koff (HER2 receptor; read-out: binding to HER2 koff): 0.00106 s⁻¹
kon (HER2 receptor): 298 M⁻¹ s⁻¹
solubility [3]: > 1000 µg/mL
solubility (in words) [3]: much higher solubility
% inhibition of T6-17 cell proliferation in MTT assays (T6-17 cells): 12.8%

CSCC[C@H](NC(=O)[C@@H](Cc1ccc(O)cc1)NC(=O)[C@@H]1CSSC[C@H](NC(=O)[C@H](N)Cc2ccccc2)C(=O)N[C@@H](CC(=O)O)C(=O)NCC(=O)N[C@@H](Cc2ccccc2)C(=O)N[C@@H](Cc2ccc(O)cc2)C(=O)N[C@@H](C)C(=O)N1)C(=O)N[C@@H](CC(=O)O)C(=O)N[C@H](C(N)=O)C(C)C [Peptide 4]
Kd (HER2 receptor; [4]): 350 nM
koff (HER2 receptor; [5]): 0.000603 s⁻¹
kon (HER2 receptor; [6]): 1720 M⁻¹ s⁻¹
solubility [3]: > 1000 µg/mL
solubility (in words) [3]: much higher solubility

CSCC[C@H](NC(=O)[C@H](Cc1ccc(O)cc1)NC(=O)[C@@H]1CSSC[C@H](NC(=O)[C@@H](N)Cc2ccccc2)C(=O)NCC(=O)N[C@@H](CC(=O)O)C(=O)NCC(=O)N[C@@H](Cc2ccccc2)C(=O)N[C@@H](Cc2ccc(O)cc2)C(=O)N[C@@H](C)C(=O)N1)C(=O)N[C@@H](CC(=O)O)C(=O)N[C@H](C(=O)O)C(C)C [Peptide 8] (H-FCGDGFYACYMDV-OH; disulfide 2-9; N-terminus assumed)
koff (HER2 receptor; [5]): 0.000701 s⁻¹
kon (HER2 receptor; [6]): 922 M⁻¹ s⁻¹
solubility [3]: > 1000 µg/mL
solubility (in words) [3]: much higher solubility

CC(C)[C@H](NC(=O)[C@H](CC(=O)O)NC(=O)[C@H](CCCCN)NC(=O)[C@H](Cc1ccc(O)cc1)NC(=O)[C@@H]1CSSC[C@H](NC(=O)[C@@H](N)Cc2ccccc2)C(=O)N[C@@H](CC(=O)O)C(=O)NCC(=O)N[C@@H](Cc2ccccc2)C(=O)N[C@@H](Cc2ccc(O)cc2)C(=O)N[C@@H](C)C(=O)N1)C(=O)O [Peptide 6] (H-FCDGFYACYKDV-OH; disulfide 2-8; N-terminus assumed)
Kd (HER2 receptor; [4]): 5700 nM
koff (HER2 receptor; [5]): 0.00125 s⁻¹
kon (HER2 receptor; [6]): 219 M⁻¹ s⁻¹
fold decrease in binding affinity for HER2 (HER2 receptor; Lys-containing analogues vs parent peptide): 8.8 fold
decrease in binding affinity (HER2 receptor; Met replaced with Lys): about 1 order of magnitude
solubility [3]: > 1000 µg/mL
solubility (in words) [3]: much higher solubility

CSCC[C@H](NC(=O)[C@H](Cc1ccc(O)cc1)NC(=O)[C@@H]1CSSC[C@H](NC(=O)[C@H](Cc2ccccc2)NC(=O)CN)C(=O)N[C@@H](CC(=O)O)C(=O)NCC(=O)N[C@@H](Cc2ccccc2)C(=O)N[C@@H](Cc2ccc(O)cc2)C(=O)N[C@@H](C)C(=O)N1)C(=O)N[C@@H](CC(=O)O)C(=O)N[C@H](C(=O)O)C(C)C [Peptide 7] (H-GFCDGFYACYMDV-OH; disulfide 3-9)
Kd (HER2 receptor; [4]): 730 nM
koff (HER2 receptor; [5]): 0.000808 s⁻¹
kon (HER2 receptor; [6]): 1110 M⁻¹ s⁻¹
solubility [3]: > 1000 µg/mL
solubility (in words) [3]: increased solubility; also recorded: good solubility

CSCC[C@H](NC(=O)[C@H](Cc1ccc(O)cc1)NC(=O)[C@@H]1CSSC[C@H](NC(=O)[C@@H](N)Cc2ccccc2)C(=O)N[C@@H](CC(=O)O)C(=O)NCC(=O)N[C@@H](Cc2ccccc2)C(=O)N[C@@H](Cc2ccc(O)cc2)C(=O)N[C@@H](C)C(=O)N1)C(=O)N[C@@H](CC(=O)O)C(=O)N[C@H](C(=O)O)C(C)C [Peptide 2]
fold increase in binding affinity for HER2 relative to the comparator peptide (HER2 receptor; 2 vs linear 9, AHNP vs 2, 3 vs AHNP): more than 5 fold
Kd (HER2 receptor; [4]): 650 nM
koff (HER2 receptor; read-out: binding to HER2 koff): 0.000643 s⁻¹
kon (HER2 receptor): 990 M⁻¹ s⁻¹
solubility [3]: < 1000 µg/mL
solubility (in words) [3]: no improvement in solubility
% inhibition of T6-17 cell proliferation in MTT assays (T6-17 cells): 22.3%

CSCC[C@H](NC(=O)[C@H](Cc1ccc(O)cc1)NC(=O)[C@@H]1CSSC[C@H](NC(=O)[C@@H](N)Cc2ccc(O)cc2)C(=O)N[C@@H](CC(=O)O)C(=O)NCC(=O)N[C@@H](Cc2ccccc2)C(=O)N[C@@H](Cc2ccc(O)cc2)C(=O)N[C@@H](C)C(=O)N1)C(=O)N[C@@H](CC(=O)O)C(=O)N[C@H](C(N)=O)C(C)C [Peptide 3] (H-YCDGFYACYMDV-NH2; disulfide 2-8; N-terminus assumed)
koff (HER2 receptor; [5]): 0.000294 s⁻¹
kon (HER2 receptor; [6]): 1960 M⁻¹ s⁻¹
koff (HER2 receptor; Biacore, immobilized HER2, read-out: koff): 0.000294 s⁻¹
Kd (HER2 receptor; Biacore, read-out: receptor-binding affinity KD): 150 nM
growth inhibition in combination with tamoxifen (in words) [1]: enhanced growth inhibition
solubility [3]: < 1000 µg/mL
growth inhibition in combination with tamoxifen (in words) [2]: enhanced growth inhibition
biological activity in the MTT assay relative to comparator (in words) (T6-17 cells; T6-17 cells): almost twice the activity of AHNP
